Publication PMC7253177, “Gain of channel function and modified gating properties in TRPM3 mutants causing intellectual disability and epilepsy” (eLife, 2020)

Target: T1, TRPM3 P1090Q mutant (Homo sapiens, UniProt Q9HCF6, P1115Q)
T1 sequence (Q9HCF6 1-1325 isoform Q9HCF6-10 P1090Q): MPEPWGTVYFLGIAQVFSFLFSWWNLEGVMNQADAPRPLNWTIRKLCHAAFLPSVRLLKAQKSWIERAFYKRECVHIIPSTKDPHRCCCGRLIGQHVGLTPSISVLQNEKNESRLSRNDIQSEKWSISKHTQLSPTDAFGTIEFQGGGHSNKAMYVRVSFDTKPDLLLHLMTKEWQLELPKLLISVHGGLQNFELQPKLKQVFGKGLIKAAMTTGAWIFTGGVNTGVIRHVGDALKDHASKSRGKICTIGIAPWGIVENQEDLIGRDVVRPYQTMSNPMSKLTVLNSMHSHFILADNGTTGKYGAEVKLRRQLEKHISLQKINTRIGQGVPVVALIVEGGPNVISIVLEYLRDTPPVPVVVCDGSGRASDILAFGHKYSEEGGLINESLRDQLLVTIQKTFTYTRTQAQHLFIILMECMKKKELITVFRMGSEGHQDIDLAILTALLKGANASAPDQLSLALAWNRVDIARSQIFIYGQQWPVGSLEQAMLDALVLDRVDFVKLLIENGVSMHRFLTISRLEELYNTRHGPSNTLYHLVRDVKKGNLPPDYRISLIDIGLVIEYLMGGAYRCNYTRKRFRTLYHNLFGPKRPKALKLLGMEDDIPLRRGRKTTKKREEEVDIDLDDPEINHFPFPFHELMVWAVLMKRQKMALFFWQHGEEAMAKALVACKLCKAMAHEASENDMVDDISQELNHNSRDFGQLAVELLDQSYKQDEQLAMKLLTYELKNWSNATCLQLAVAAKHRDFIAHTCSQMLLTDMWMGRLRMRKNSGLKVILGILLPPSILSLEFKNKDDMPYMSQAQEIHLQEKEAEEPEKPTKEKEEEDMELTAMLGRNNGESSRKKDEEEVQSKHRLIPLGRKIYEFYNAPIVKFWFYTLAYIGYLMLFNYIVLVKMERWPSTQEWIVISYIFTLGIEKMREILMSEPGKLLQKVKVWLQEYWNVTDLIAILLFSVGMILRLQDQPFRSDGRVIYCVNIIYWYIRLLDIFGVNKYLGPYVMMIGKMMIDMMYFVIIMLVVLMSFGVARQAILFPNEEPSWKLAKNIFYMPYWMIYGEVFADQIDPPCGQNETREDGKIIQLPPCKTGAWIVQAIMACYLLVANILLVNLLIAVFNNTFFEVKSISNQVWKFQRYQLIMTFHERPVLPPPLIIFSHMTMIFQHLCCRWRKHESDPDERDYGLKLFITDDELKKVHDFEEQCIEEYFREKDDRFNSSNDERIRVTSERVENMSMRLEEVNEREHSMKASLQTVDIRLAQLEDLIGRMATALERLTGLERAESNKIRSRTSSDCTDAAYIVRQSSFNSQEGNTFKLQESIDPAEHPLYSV
Experimental: HEK293T cells ([Graham et al., 1977]) were cultured as described previously ([Vriens et al., 2007]) and used up in passage number 14. HEK293T cells were tested for the lack of mycoplasma and transiently transfected with 2 µg of DNA using TransIT transfection reagent (Mirus) 36–48 hr before the measurements. In case of co-cultures a ratio of 1:1 between hTRPM3-YFP WT and mutants-YFP DNA was used.
All mutants were obtained by the standard PCR overlap extension method using hTRPM3 directly linked to YFP from pCAGGS/IRES-GFP vector ([Vriens et al., 2007]). Accuracy of all mutant sequences was verified by sequencing of the entire DNA constructs.
Standard whole-cell patch-clamp recordings were performed with an EPC-10 amplifier and the PatchMasterPro Software (HEKA Elektronik, Lambrecht, Germany). Current measurements were performed at a sampling rate of 20 kHz and currents were digitally filtered at 2.9 kHz. In all measurements, 70% of the series resistance was compensated. The standard internal solution contained (in mM): 100 CsAsp, 45 CsCl, 10 EGTA, 10 HEPES, 1 MgCl2 (pH 7.2 with CsOH) or 140 potassium gluconate, 5 EGTA, 1 MgCl2, 10 HEPES and 2 NaATP (pH 7.3 with CsOH) for the measurements of Gβγ mediated inhibition and the standard extracellular solution contained (in mM): 150 NaCl, 1 MgCl2, 10 HEPES (pH 7.4 with NaOH). The standard patch pipette resistance was between 2 MΩ and 4 MΩ when filled with pipette solution. In experiments allowing Ca^2+-dependent desensitization of TRPM3, Mg^2+ was replaced by Ca^2+ in the extracellular solution, and Cs^+ was replaced by Na^+ in the pipette solution. […] The chemical ligands were dissolved in bath solution from a stock diluted in DMSO.

Row | Structure (SMILES) | Activation of whole-cell currents in the absence of PS (Clt 10 µM) | Effect on the response to PS (whole-cell currents) (Clt 10 µM, PS 40 µM) | Inhibition of PS-activated inward and outward currents (primidone 25 µM, PS 40 µM, ±80 mV, cells co-expressing µ-opioid receptor)
1 | Clc1ccccc1C(c1ccccc1)(c1ccccc1)n1ccnc1 [Clt, clotrimazole] | did not activate currents | inhibited the response to PS | –
2 | CCC1(c2ccccc2)C(=O)NCNC1=O [primidone] | – | – | full inhibition
